One may read the melting point as the temperature of the solid-liquid transition.

In turn, `CCCCOC(=O)c1cc(Oc2ccc3c(C(=O)Nc4cccc(C(F)(F)F)c4)cccc3c2)ccn1` [Example 64, 4-[5-(3-Trifluoromethyl-phenylcarbamoyl)-naphthalen-2-yloxy]-pyridine-2-carboxylic acid butyl ester] gave a melting point of 128 to 130 °C.

The molecule `COC(=O)Nc1cc(Oc2ccc3c(C(=O)Nc4cccc(C(F)(F)F)c4)cccc3c2)ccn1` [Example 69, {4-[5-(3-Trifluoromethyl-phenylcarbamoyl)-naphthalen-2-yloxy]-pyridin-2-yl}-carbamic acid methyl ester] came in with a melting point of 230 to 232 °C.

Consider `CN(C)CCNC(=O)c1cc(Oc2ccc3c(C(=O)Nc4cccc(C(F)(F)F)c4)cccc3c2)ccn1` [Example 67, 4-[5-(3-Trifluoromethyl-phenylcarbamoyl)-naphthalen-2-yloxy]-pyridine-2-carboxylic acid (2-dimethylamino-ethyl)-amide], for which the melting point was in the range of 80 to 82 °C.

Consider `NC(=O)c1cc(Oc2ccc3c(C(=O)Nc4cccc(C(F)(F)F)c4)cccc3c2)ccn1` [Example 66, 4-[5-(3-Trifluoromethyl-phenylcarbamoyl)-naphthalen-2-yloxy]-pyridine-2-carboxylic acid amide], for which the melting point lay in the range of 117 to 120 °C.

As to `Nc1cc(Sc2ccc3c(C(=O)Nc4cccc(OC(F)(F)F)c4)cccc3c2)ncn1` [Example 61, 6-(6-Amino-pyrimidin-4-ylsulfanyl)-naphthalene-1-carboxylic acid (3-trifluoromethoxy-phenyl)-amide], the melting point lay within 197 to 199 °C.

Take `CN(C)Cc1cc(Oc2ccc3c(C(=O)Nc4cccc(C(F)(F)F)c4)cccc3c2)ncn1` [Example 55, 6-(6-Dimethylaminomethyl-pyrimidin-4-yloxy)-naphthalene-1-carboxylic acid (3-trifluoromethyl-phenyl)-amide]: the melting point lay in the range of 180 to 181 °C.

Molecule `CNCc1cc(Oc2ccc3c(C(=O)Nc4cccc(C(F)(F)F)c4)cccc3c2)ncn1` [Example 54, 6-(6-Methylaminomethyl-pyrimidin-4-yloxy)-naphthalene-1-carboxylic acid (3-trifluoromethyl-phenyl)-amide] had a melting point of 141 to 143 °C.

Consider `Nc1cc(Sc2ccc3c(C(=O)Nc4cccc(C(F)(F)F)c4)cccc3c2)ncn1` [Example 58, 6-(6-Amino-pyrimidin-4-ylsulfanyl)-naphthalene-1-carboxylic acid (3-trifluoromethyl-phenyl)-amide], for which the melting point was determined as 205 °C.

Turning to `Nc1cc(S(=O)(=O)c2ccc3c(C(=O)Nc4cccc(C(F)(F)F)c4)cccc3c2)ncn1` [Example 60, 6-(6-Amino-pyrimidine-4-sulfonyl)-naphthalene-1-carboxylic acid (3-trifluoromethyl-phenyl)-amide], the melting point was in the range of 229 to 231 °C.

`Nc1nccc(CCc2ccc3c(C(=O)Nc4cccc(C(F)(F)F)c4)cccc3c2)n1` [Example 70, 6-[2-(2-Amino-pyrimidin-4-yl)-ethyl]-naphthalene-1-carboxylic acid (3-trifluoromethyl-phenyl)-amide] showed a melting point of 225 to 227 °C.

`CC(=O)Nc1nccc(Oc2ccc3c(C(=O)Nc4cccc(C(F)(F)F)c4)cccc3c2)n1` [Example 18, 6-(2-Acetylamino-pyrimidin-4-yloxy)-naphthalene-1-carboxylic acid (3-trifluoromethyl-phenyl)-amide] displayed a melting point of 216 to 217 °C.

On to `Nc1cc(Oc2ccc3c(C(=O)Nc4cccc(C(F)(F)F)c4)cccc3c2)ccn1` [Example 68, 6-(2-Amino-pyridin-4-yloxy)-naphthalene-1-carboxylic acid (3-trifluoromethyl-phenyl)-amide], for which the melting point is 222 to 224 °C.

The molecule `CNc1cc(Oc2ccc3c(c2)OCCN3C(=O)Nc2ccc(C)c(C(F)(F)F)c2)ncn1` [Example 8, 7-(6-Methylamino-pyrimidin-4-yloxy)-2,3-dihydro-benzo[1,4]oxazine-4-carboxylic acid (4-methyl-3-trifluoromethyl-phenyl)-amide] displayed a melting point of 180 to 182 °C.

As to `CNc1cc(Oc2ccc3c(C(=O)Nc4ccc(N5CCOCC5)c(C(F)(F)F)c4)cccc3c2)ncn1` [Example 40, 6-(6-Methylamino-pyrimidin-4-yloxy)-naphthalene-1-carboxylic acid (4-morpholin-4-yl-3-trifluoromethyl-phenyl)-amide], the melting point is 156 to 157 °C.

Regarding `Nc1cc(Oc2ccc3c(C(=O)Nc4cccc(C(F)(F)F)c4)cccc3c2)ncn1` [Example 26, 6-(6-Amino-pyrimidin-4-yloxy)-naphthalene-1-carboxylic acid (3-trifluoromethyl-phenyl)-amide], the melting point was 243 to 244 °C.

Molecule `Nc1cc(Oc2ccc3c(C(=O)Nc4ccc(F)c(C(F)(F)F)c4)cccc3c2)ncn1` [Example 25, 6-(6-Amino-pyrimidin-4-yloxy)-naphthalene-1-carboxylic acid (4-fluoro-3-trifluoromethyl-phenyl)-amide] gave a melting point of 224 to 225 °C.

As for `O=C(Nc1cccc(C(F)(F)F)c1)c1cccc2cc(Oc3cc(CCl)ncn3)ccc12` [Example 53, 6-(6-Chloromethyl-pyrimidin-4-yloxy)-naphthalene-1-carboxylic acid (3-trifluoromethyl-phenyl)-amide], the melting point was 178 to 181 °C.

Regarding `CC(C)NC(=O)c1cc(Oc2ccc3c(C(=O)Nc4cccc(C(F)(F)F)c4)cccc3c2)ncn1` [Example 51, 6-[5-(3-Trifluoromethyl-phenylcarbamoyl)-naphthalen-2-yloxy]-pyrimidine-4-carboxylic acid isopropylamide], the melting point lay within 205 to 208 °C.

For the molecule `CNc1cc(Oc2ccc3c(C(=O)Nc4cccc(C(F)(F)F)c4)cncc3c2)ncn1` [Example 96, 7-(6-Methylamino-pyrimidin-4-yloxy)-isoquinoline-4-carboxylic acid (3-trifluoromethyl-phenyl)-amide], the melting point was in the range of 205 to 208 °C.

`CNC(=O)c1cc(Oc2ccc3c(C(=O)Nc4cccc(C(F)(F)F)c4)cccc3c2)ccn1` [Example 65, 4-[5-(3-Trifluoromethyl-phenylcarbamoyl)-naphthalen-2-yloxy]-pyridine-2-carboxylic acid methylamide] displayed a melting point of 175 to 177 °C.

In turn, `CNc1cc(Oc2ccc3c(C(=O)Nc4ccc(F)c(C(F)(F)F)c4)cncc3c2)ncn1` [Example 95, 7-(6-Methylamino-pyrimidin-4-yloxy)-isoquinoline-4-carboxylic acid (4-fluoro-3-trifluoromethyl-phenyl)-amide] had a melting point of 255 to 257 °C.

For the molecule `Nc1nc(Cl)cc(Oc2ccc3c(C(=O)Nc4cccc(C(F)(F)F)c4)cccc3c2)n1` [Example 13, 6-(2-Amino-6-chloro-pyrimidin-4-yloxy)-naphthalene-1-carboxylic acid (3-trifluoromethyl-phenyl)-amide], the melting point lay in the range of 234 to 236 °C.

As for `Nc1nccc(Oc2ccc3c(c2)OCCN3C(=O)Nc2cccc(C(F)(F)F)c2)n1` [Example 10, 7-(2-Amino-pyrimidin-4-yloxy)-2,3-dihydro-benzo[1,4]oxazine-4-carboxylic acid (3-trifluoromethyl-phenyl)-amide], the melting point fell in the range of 161 to 163 °C.

`N#Cc1cc(Oc2ccc3c(C(=O)Nc4cccc(C(F)(F)F)c4)cccc3c2)ncn1` [Example 43, 6-(6-Cyano-pyrimidin-4-yloxy)-naphthalene-1-carboxylic acid (3-trifluoromethyl-phenyl)-amide] came in with a melting point of 167 °C.

In turn, `Nc1cc(Sc2ccc3c(C(=O)Nc4ccc(F)c(C(F)(F)F)c4)cccc3c2)ncn1` [Example 57, 6-(6-Amino-pyrimidin-4-ylsulfanyl)-naphthalene-1-carboxylic acid (4-fluoro-3-trifluoromethyl-phenyl)-amide] returned a melting point of 221 °C.

In turn, `CC(C)c1ccc(-n2nc(C(C)(C)C)cc2NC(=O)c2cncc3cc(Oc4cc(N)ncn4)ccc23)cc1` [Example 93, 7-(6-Amino-pyrimidin-4-yloxy)-isoquinoline-4-carboxylic acid [5-tert-butyl-2-(4-isopropyl-phenyl)-2H-pyrazol-3-yl]-amide] yielded a melting point of 131 to 133 °C.

`CC(C)(C)c1cc(NC(=O)c2cncc3cc(Oc4cc(N)ncn4)ccc23)n(-c2ccc(F)cc2)n1` [Example 94, 7-(6-Amino-pyrimidin-4-yloxy)-isoquinoline-4-carboxylic acid [5-tert-butyl-2-(4-fluoro-phenyl)-2H-pyrazol-3-yl]-amide]: the melting point lay within 124 to 126 °C.

Take `Nc1cc(C#Cc2ccc3c(C(=O)Nc4cccc(C(F)(F)F)c4)cccc3c2)ncn1` [Example 71, 6-(6-Amino-pyrimidin-4-ylethynyl)-naphthalene-1-carboxylic acid (3-trifluoromethyl-phenyl)-amide]: the melting point is 217 to 220 °C.

`CNc1cc(Oc2ccc3c(c2)OCCN3C(=O)Nc2cccc(C(F)(F)F)c2)ncn1` [Example 9, 7-(6-Methylamino-pyrimidin-4-yloxy)-2,3-dihydro-benzo[1,4]oxazine-4-carboxylic acid (3-trifluoromethyl-phenyl)-amide]: the melting point was found to be 180 °C.

For `COC(=O)Nc1nccc(Oc2ccc3c(C(=O)Nc4cccc(C(F)(F)F)c4)cccc3c2)n1` [Example 19, 6-(2-Methoxycarbonylamino-pyrimidin-4-yloxy)-naphthalene-1-carboxylic acid (3-trifluoromethyl-phenyl)-amide], the melting point is 199 to 200 °C.

Values taken from patent US8026247B2, “Bicyclic amides as kinase inhibitors” (Novartis AG, priority 2004, dated 2011).
